In data set [1] the target is T1, ERa (Homo sapiens, UniProt P03372).
T1 sequence (P03372 1-595): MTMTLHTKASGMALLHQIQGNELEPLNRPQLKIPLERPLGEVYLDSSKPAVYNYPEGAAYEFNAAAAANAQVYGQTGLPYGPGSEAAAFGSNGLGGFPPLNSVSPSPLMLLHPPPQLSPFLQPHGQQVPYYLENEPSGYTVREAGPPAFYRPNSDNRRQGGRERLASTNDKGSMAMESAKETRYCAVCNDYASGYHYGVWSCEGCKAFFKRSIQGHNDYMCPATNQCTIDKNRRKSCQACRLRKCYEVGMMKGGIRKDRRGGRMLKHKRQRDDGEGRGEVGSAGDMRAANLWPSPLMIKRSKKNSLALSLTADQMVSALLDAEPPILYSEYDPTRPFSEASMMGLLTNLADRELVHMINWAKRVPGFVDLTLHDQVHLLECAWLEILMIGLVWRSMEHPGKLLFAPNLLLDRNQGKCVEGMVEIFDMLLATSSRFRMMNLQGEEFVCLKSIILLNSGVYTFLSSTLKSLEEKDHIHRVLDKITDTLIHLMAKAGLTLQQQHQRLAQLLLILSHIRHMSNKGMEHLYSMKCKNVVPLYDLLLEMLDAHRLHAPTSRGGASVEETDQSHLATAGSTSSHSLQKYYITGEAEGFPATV
The experiment in a line: Binding to human ERa. Particulars: for IC50: read-out: half-maximal inhibitory concentration (IC50) (converted).

Data set [2] deals with MCF7 cells. The experiment in a line: MCF7 cell growth inhibition (luminescence-based proliferation assay, CellTiter-Glo). As to the method:
MCF7 cells were obtained from American Type Culture Collection (ATCC). For cell growth assay, MCF7 cells were seeded in 96-well plates at 2000 cells/well in 90 μL of DMEM medium containing 10% fetal bovine serum, and then incubated at 37° C. with 5% CO2 in air overnight. The following day, compound (1-g) and compound (1-h) were administered to the cells by using 1000× compound stock solution prepared in DMSO at concentrations of 3, 1, 0.33, 0.11, 0.037, 0.012, 0.0041, 0.0013, and 0.00046 mM. 1000x compound stock solution was first diluted in culturing medium to 10×, then 10 μL compound medium was added to each well in the cell plates. After administration of compound (1-g) and compound (1-h), the cells were then incubated at 37° C. for 6 days. Upon completion, the plates were equilibrated at room temperature for approximately 10 minutes. 100 μL of CellTiter-Glo® Reagent (Promega) was added to each well. The plates were then incubated at room temperature for 10 minutes and luminescence was recorded by EnSpire plate reader (PerkinElmer).
Background: Cellular ATP, detected with luciferase, serves as a proxy for viable cell number.

For data set [3], the target named is human cytochrome P450 CYP3A4 (Homo sapiens, UniProt P08684). The experiment in a line: In vitro metabolism by CYP3A4. The data set is classed as in vitro ADME.
Chain of human cytochrome P450 CYP3A4 (P08684 whole entry): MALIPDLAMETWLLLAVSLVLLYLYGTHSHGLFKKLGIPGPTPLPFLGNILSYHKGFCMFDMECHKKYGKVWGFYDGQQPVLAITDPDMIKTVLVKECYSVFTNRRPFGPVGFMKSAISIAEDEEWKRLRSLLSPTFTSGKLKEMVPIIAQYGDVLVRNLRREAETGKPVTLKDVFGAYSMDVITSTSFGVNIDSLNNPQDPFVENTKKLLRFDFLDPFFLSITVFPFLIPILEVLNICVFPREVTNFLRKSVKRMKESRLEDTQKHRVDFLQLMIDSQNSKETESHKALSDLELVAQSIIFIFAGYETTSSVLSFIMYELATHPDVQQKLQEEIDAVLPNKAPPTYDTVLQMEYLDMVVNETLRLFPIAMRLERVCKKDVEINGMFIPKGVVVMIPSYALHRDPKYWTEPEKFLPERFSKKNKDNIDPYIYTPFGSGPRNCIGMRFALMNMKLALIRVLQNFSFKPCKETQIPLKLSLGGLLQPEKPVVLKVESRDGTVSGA
In data set [4] the target is CYP1A2 (Homo sapiens, UniProt P05177). The experiment in a line: CYP1A2 direct inhibition. Particulars: highest concentration evaluated (10 μM). The data set is classed as in vitro ADME.
Chain of CYP1A2 (Homo sapiens, UniProt P05177) (P05177 whole entry): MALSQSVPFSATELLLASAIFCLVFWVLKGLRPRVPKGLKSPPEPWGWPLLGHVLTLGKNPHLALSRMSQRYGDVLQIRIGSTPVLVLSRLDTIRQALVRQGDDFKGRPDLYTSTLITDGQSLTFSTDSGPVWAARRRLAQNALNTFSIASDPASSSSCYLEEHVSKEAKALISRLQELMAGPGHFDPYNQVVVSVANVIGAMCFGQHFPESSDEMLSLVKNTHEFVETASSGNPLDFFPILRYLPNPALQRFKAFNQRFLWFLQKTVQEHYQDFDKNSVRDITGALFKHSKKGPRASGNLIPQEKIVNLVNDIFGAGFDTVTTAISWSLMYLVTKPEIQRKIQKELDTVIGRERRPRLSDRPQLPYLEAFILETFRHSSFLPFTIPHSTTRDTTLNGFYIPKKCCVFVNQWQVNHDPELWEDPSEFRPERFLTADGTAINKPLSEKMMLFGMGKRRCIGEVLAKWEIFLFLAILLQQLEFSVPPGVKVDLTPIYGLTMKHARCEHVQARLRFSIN
The target in data set [5] is CYP2D6 (Homo sapiens, UniProt P10635). The experiment in a line: CYP2D6 direct inhibition. The data set is classed as in vitro ADME. Particulars: highest concentration evaluated (10 μM).
Chain of CYP2D6 (P10635 whole entry): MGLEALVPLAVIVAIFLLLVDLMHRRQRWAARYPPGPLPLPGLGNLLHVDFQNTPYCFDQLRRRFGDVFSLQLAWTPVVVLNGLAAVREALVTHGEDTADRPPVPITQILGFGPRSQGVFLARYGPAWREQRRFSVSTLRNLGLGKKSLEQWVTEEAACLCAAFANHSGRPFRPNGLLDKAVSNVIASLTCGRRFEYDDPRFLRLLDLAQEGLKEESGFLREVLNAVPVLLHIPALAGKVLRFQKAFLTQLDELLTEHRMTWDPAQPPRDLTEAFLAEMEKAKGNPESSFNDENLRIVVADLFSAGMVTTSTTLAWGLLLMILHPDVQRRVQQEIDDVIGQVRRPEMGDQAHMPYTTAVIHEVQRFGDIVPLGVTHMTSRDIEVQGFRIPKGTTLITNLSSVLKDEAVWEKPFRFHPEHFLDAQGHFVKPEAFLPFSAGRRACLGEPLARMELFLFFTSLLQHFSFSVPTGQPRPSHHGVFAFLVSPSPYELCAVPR
Data set [6] deals with CYP1A2. The experiment in a line: CYP1A2 induction in hepatocytes (activity, mRNA). Particulars: for CYP1A2 mRNA expression increase: 1 of 3 hepatocyte donors. The data set is classed as in vitro ADME.

Where two headings read alike, the source gives them in different places.

Usually Ki stands for a dissociation constant, usually derived from enzyme kinetics or from competition with a known ligand. For orientation: GI50 means the concentration at which growth is held to half of that of the control. A high value points to lower sensitivity of the cells.

With `O=C1CC[C@H](N2Cc3cc(N4CCN(CC5CCN(c6ccc([C@@H]7c8ccc(O)cc8OC[C@@H]7c7ccccc7)cc6F)CC5)CC4)ccc3C2=O)C(=O)N1` [compound (1-g), (S)-3-(5-(4-((1-(2-fluoro-4-((3S,4R)-7-hydroxy-3-phenylchroman-4-yl)phenyl)piperidin-4-yl)methyl)piperazin-1-yl)-1-oxoisoindolin-2-yl)piperidine-2,6-dione], the IC50 in data set [1] is 6.02 nM; in data set [1] (same value in ng/mL), 5.91 nM. Besides, the Ki in data set [1] (read-out: inhibitor constant (Ki)) amounted to 0.53 nM. The compound also came in with a GI50 in data set [2] (Homo sapiens, 144 h, MCF7 cells, 6 days, CellTiter-Glo) of 6.2 nM. In addition, the “reduced the tumor growth by (FIG. 3A/3B)” value in data set [2] (MCF7 cell proliferation assay) is recorded as “about 50%”. Also, the “metabolism by CYP3A4” value in data set [3] is given as “weakly metabolized”. For the same compound, the CYP1A2 direct inhibition result in data set [4] is recorded as “did not directly inhibit”. The CYP2D6 direct inhibition entry in data set [5] was “did not directly inhibit”. The “CYP1A2 mRNA expression increase” value in data set [6] (0.5 μM (372 ng/mL)) was 1.4 fold; in data set [6] (2 μM), 3.1 fold. The “CYP1A2 enzyme activity induction” value in data set [6] (hepatocytes) was “no induction of CYP1A2 enzyme activity was observed”.

(Values after patent US20250381179A1, “CHROMAN-BASED COMPOUNDS FOR TREATING CANCER” (priority 2024, published 2025).)
